Measurements as given in ChEMBL document CHEMBL1125959, “Synthesis and DNA binding properties of an amidine-linked and phenyl-containing analogue of distamycin A” (Bioorg Med Chem Lett, 1991).

What was measured:
Nucleic Acid [1] = assay: The apparent DNA binding constant to bind with T4 DNA was determined by ethidium displacement assay; format: nucleic-acid assay
Nucleic Acid [2] = assay: The apparent DNA binding constant to bind with calf thymus DNA was determined by ethidium displacement assay; format: nucleic-acid assay; conditions: Bos taurus

K app (Nucleic Acid [1]) | K app (Nucleic Acid [2]) | Structure (SMILES)
120000 M⁻¹ | 65000 M⁻¹ | CN(C)CC/N=C(\N)c1cccc(NC(=O)c2cccc(NC=O)c2)c1
 | 770000 M⁻¹ | Cn1cc(NC(=O)c2cc(NC(=O)c3cc(NC=O)cn3C)cn2C)cc1C(=O)NCCC(=N)N
